Assay results published in patent US4542018A, “Teichomycin A2 pure single factors 1, 2, 3, 4 and 5 and method for their production” (Gruppo Lepetit S.p.A., priority 1982, dated 1985).

Assays:
[1] = system: Gram-positive bacteria; assay: In vitro antibacterial spectrum; type: cell-based
Description: (§1) Penassay broth (Difco) and Todd-Hewitt broth (Difco) were used for staphylococci and streptococci respectively. Overnight broth cultures were diluted so that the final inoculum was about 10^3 colony forming units/ml.

[2] = system: S. aureus ATCC 6538; assay: Microbiological potency by agar diffusion method, Teichomycin A2 complex as standard; type: cell-based; conditions: 2.5-20 μg/ml, 37° C., 18 hours
Description: In particular an adeguate amount of Teichomycin A2 factor 1, Teichomycin A2 factor 2, Teichomycin A2 factor 3, Teichomycin A2 factor 4, Teichomycin A2 factor 5 and Teichomycin A2 complex used as the standard is dissolved in dimethylformamide at a concentration of 2000 μg/ml. These solutions are further diluted using phosphate buffer 0.067 M pH 7.4 supplemented with 1% bovine serum in order to provide the following concentrations: 2.5, 5, 10, and 20 μg/ml.
Filter paper discs are then soaked into the sample solutions and placed at regular intervals on the surface of agar plates seeded with a suspension of the test microorganism. The plates are incubated at 37° C. for 18 hours and then the diameter of the inhibition zones are measured. The data obtained are fed into a computer to calculate the potency of the individual factors relative to the complex.

[3] = system: Streptococcus salivarius; assay: In vitro antibacterial activity (MIC), two-fold dilution in microtiter system; type: cell-based; conditions: 1 tested strain, clinical isolate, Todd-Hewitt broth, 18-24 h at 37° C.
Description: as §1

[4] = system: Staphylococcus epidermidis; assay: as above; type: cell-based; conditions: 4 tested strains, clinical isolates, Penassay broth, 18-24 h at 37° C.
Description: as §1

[5] = system: Streptococcus bovis; assay: as above; type: cell-based; conditions: 1 tested strain, clinical isolate, Todd-Hewitt broth, 18-24 h at 37° C.
Description: as §1

[6] = system: Streptococcus pyogenes; assay: as above; type: cell-based; conditions: 7 tested strains, clinical isolates, Todd-Hewitt broth, 18-24 h at 37° C.
Description: as §1

[7] = system: Streptococcus mitis; assay: as above; type: cell-based; conditions: 1 tested strain, clinical isolate, Todd-Hewitt broth, 18-24 h at 37° C.
Description: as §1

[8] = system: Staphylococcus aureus; assay: as above; type: cell-based; conditions: 5 tested strains, clinical isolates, Penassay broth, 18-24 h at 37° C.
Description: as §1

[9] = system: Streptococcus agalactiae; assay: as above; type: cell-based; conditions: 1 tested strain, clinical isolate, Todd-Hewitt broth, 18-24 h at 37° C.
Description: as §1

[10] = system: Streptococcus sanguis; assay: as above; type: cell-based; conditions: 1 tested strain, clinical isolate, Todd-Hewitt broth, 18-24 h at 37° C.
Description: as §1

[11] = system: Streptococcus faecalis; assay: as above; type: cell-based; conditions: 5 tested strains, clinical isolates, Todd-Hewitt broth, 18-24 h at 37° C.
Description: as §1

[12] = system: Streptococcus pneumoniae; assay: as above; type: cell-based; conditions: 6 tested strains, clinical isolates, Todd-Hewitt broth, 18-24 h at 37° C.
Description: as §1

[13] = Solubility; type: physicochemical; conditions: for solubility in water: water at pH>7.0 or at pH<2
[14] = system: S. pneumoniae L 44; assay: In vivo antibacterial activity, experimental infection in mice; conditions: s.c.
Description: (§2) Teichomycin A2 factors 2,3,4 and 5 were tested in the experimental infections caused by S. pneumoniae and by S. pyogenes in mice. The experiments were carried out in comparison with Teichomycin A2 complex.

[15] = system: S. pyogenes L 49; assay: as above; conditions: s.c.
Description: as §2

Compound | in vitro antibacterial activity (spectrum) [1] | microbiological potency relative to the complex [2] [U/mg] | M.I.C. [3] [µg/mL] | M.I.C. [4] [µg/mL] | M.I.C. [5] [µg/mL] | M.I.C. [6] [µg/mL] | M.I.C. [7] [µg/mL] | M.I.C. [8] [µg/mL] | M.I.C. [9] [µg/mL] | M.I.C. [10] [µg/mL] | M.I.C. [11] [µg/mL] | M.I.C. [12] [µg/mL] | solubility in chloroform, benzene, n-hexane, acetonitrile, ethyl ether, acetone, ethyl acetate, carbon tetrachloride [13] | solubility in dimethylformamide, dimethylsulfoxide and propyleneglycol [13] | solubility in methanol and ethanol [13] | solubility in methylcellosolve and glycerol [13] | solubility in water [13] | ED50 [14] | ED50 [15]
CCCCC/C=C\CCC(=O)N[C@H]1[C@H](Oc2c3cc4cc2Oc2ccc(cc2Cl)[C@@H](O[C@@H]2O[C@H](CO)[C@@H](O)[C@H](O)[C@H]2NC(C)=O)[C@@H]2NC(=O)[C@H](NC(=O)[C@@H]4NC(=O)[C@H]4NC(=O)[C@@H](Cc5ccc(c(Cl)c5)O3)NC(=O)[C@H](N)c3ccc(O)c(c3)Oc3cc(O)cc4c3)c3ccc(O)c(c3)-c3c(O[C@H]4O[C@H](CO)[C@@H](O)[C@H](O)[C@@H]4O)cc(O)cc3[C@@H](C(=O)O)NC2=O)O[C@H](CO)[C@@H](O)[C@@H]1O [Teichomycin A2 factor 1] | mainly active against Gram-positive bacteria | 841 | 0.2 | 0.2 to 1.6 | 0.4 | 0.05 to 0.1 | 0.025 | 0.8 to 1.6 | 0.1 | 0.1 | 0.2 to 0.4 | 0.1 to 0.2 | almost insoluble | freely soluble | poorly soluble | slightly soluble | freely soluble | – | –
CC(=O)N[C@H]1[C@H](O[C@@H]2c3ccc(c(Cl)c3)Oc3cc4cc(c3O[C@@H]3O[C@H](CO)[C@@H](O)[C@H](O)[C@H]3NC(=O)CCCCCCC(C)C)Oc3ccc(cc3Cl)C[C@H]3NC(=O)[C@H](N)c5ccc(O)c(c5)Oc5cc(O)cc(c5)[C@H](NC3=O)C(=O)N[C@H]4C(=O)N[C@H]3C(=O)N[C@@H]2C(=O)N[C@H](C(=O)O)c2cc(O)cc(O[C@H]4O[C@H](CO)[C@@H](O)[C@H](O)[C@@H]4O)c2-c2cc3ccc2O)O[C@H](CO)[C@@H](O)[C@@H]1O [Teichomycin A2 factor 2] | mainly active against Gram-positive bacteria | 1086 | 0.2 | 0.1 to 1.6 | 0.4 | 0.025 to 0.1 | 0.025 | 0.8 to 1.6 | 0.1 | 0.1 | 0.1 to 0.4 | 0.05 to 0.1 | almost insoluble | freely soluble | poorly soluble | slightly soluble | freely soluble | 0.28 (0.22-0.34) mg/kg/day | 0.15 (0.13-0.18) mg/kg/day
CCCCCCCCCC(=O)N[C@H]1[C@H](Oc2c3cc4cc2Oc2ccc(cc2Cl)[C@@H](O[C@@H]2O[C@H](CO)[C@@H](O)[C@H](O)[C@H]2NC(C)=O)[C@@H]2NC(=O)[C@H](NC(=O)[C@@H]4NC(=O)[C@H]4NC(=O)[C@H](Cc5ccc(c(Cl)c5)O3)NC(=O)[C@H](N)c3ccc(O)c(c3)Oc3cc(O)cc4c3)c3ccc(O)c(c3)-c3c(O[C@H]4O[C@H](CO)[C@@H](O)[C@H](O)[C@@H]4O)cc(O)cc3[C@@H](C(=O)O)NC2=O)O[C@H](CO)[C@@H](O)[C@@H]1O [Teichomycin A2 factor 3] | mainly active against Gram-positive bacteria | 1131 | 0.1 | 0.2 to 0.8 | 0.2 | 0.025 to 0.05 | 0.0125 | 0.4 to 0.8 | 0.05 | 0.1 | 0.1 to 0.2 | 0.05 to 0.1 | almost insoluble | freely soluble | poorly soluble | slightly soluble | freely soluble | 0.27 (0.23-0.32) mg/kg/day | 0.13 (0.11-0.16) mg/kg/day
CCC(C)CCCCCCC(=O)N[C@H]1[C@H](Oc2c3cc4cc2Oc2ccc(cc2Cl)[C@@H](O[C@@H]2O[C@H](CO)[C@@H](O)[C@H](O)[C@H]2NC(C)=O)[C@@H]2NC(=O)[C@H](NC(=O)[C@@H]4NC(=O)[C@H]4NC(=O)[C@@H](Cc5ccc(c(Cl)c5)O3)NC(=O)[C@H](N)c3ccc(O)c(c3)Oc3cc(O)cc4c3)c3ccc(O)c(c3)-c3c(O[C@H]4O[C@H](CO)[C@@H](O)[C@H](O)[C@@H]4O)cc(O)cc3[C@@H](C(=O)O)NC2=O)O[C@H](CO)[C@@H](O)[C@@H]1O (stereo partly shown) [Teichomycin A2 factor 4] | mainly active against Gram-positive bacteria | 1066 | 0.05 | 0.2 to 0.8 | 0.4 | 0.006 to 0.05 | 0.025 | 0.2 to 0.8 | 0.1 | 0.05 | 0.1 to 0.4 | 0.05 to 0.1 | almost insoluble | freely soluble | poorly soluble | slightly soluble | freely soluble | – | –
CC(=O)N[C@H]1[C@H](O[C@@H]2c3ccc(c(Cl)c3)Oc3cc4cc(c3O[C@@H]3O[C@H](CO)[C@@H](O)[C@H](O)[C@H]3NC(=O)CCCCCCCC(C)C)Oc3ccc(cc3Cl)C[C@H]3NC(=O)[C@H](N)c5ccc(O)c(c5)Oc5cc(O)cc(c5)[C@H](NC3=O)C(=O)N[C@H]4C(=O)N[C@H]3C(=O)N[C@@H]2C(=O)N[C@H](C(=O)O)c2cc(O)cc(O[C@H]4O[C@H](CO)[C@@H](O)[C@H](O)[C@@H]4O)c2-c2cc3ccc2O)O[C@H](CO)[C@@H](O)[C@@H]1O [Teichomycin A2 factor 5] | mainly active against Gram-positive bacteria | 954 | 0.05 | 0.2 to 0.8 | 0.4 | 0.006 to 0.05 | 0.025 | 0.2 to 0.8 | 0.1 | 0.05 | 0.1 to 0.4 | 0.05 to 0.1 | almost insoluble | freely soluble | poorly soluble | slightly soluble | freely soluble | 0.13 (0.10-0.15) mg/kg/day | 0.10 (0.098-0.13) mg/kg/day
